Experimental data as given in patent US6121319A (priority 1998, dated 2000).

What was measured:
[1] = test system: VCAM-1; assay: VCAM-1 expression in human aortic endothelial cells (TNF-induced, ELISA); type: cell-based; conditions: for VCAM-1 expression as a percentage of VCAM-1 expression induced by TNF alone: HAEC, 2.5, 5, 10 and 100 μM, 16 h, 37 °C, FIG. 1
Experimental: (§1) The cells were incubated for sixteen hours in cell culture media at 37 degrees Celsius in a tissue culture incubator. After sixteen hours, the cells were washed, and incubated with antibodies to VCAM-1. The amount of antibody binding to the cells was determined by a colorometric ELISA assay using a horseradish peroxidase conjugated antibody to the VCAM-1 antibody.

[2] = test system: ICAM-1; assay: ICAM-1 expression in human aortic endothelial cells (TNF-induced, ELISA); type: cell-based; conditions: HAEC; 2.5, 5, 10 and 100 μM; 16 h; FIG. 2
Experimental: as §1, with “ICAM-1.” for “VCAM-1.”, “ICAM-1” for “VCAM-1”

[3] = test system: lipid-fed rabbits; assay: Cholesterol and lipoprotein cholesterol in plasma of lipid-fed rabbits, three weeks; type: in vivo, rabbit; conditions: 0.5% wt/wt in high-fat chow, p<0.05, FIG. 5
Text: Control animals were fed the same chow without drug added. Lipoprotein fractions were separated from whole plasma by […] and analyzed for cholesterol content.

[4] = test system: VCAM-1; assay: VCAM-1 expression in aorta sections of hypercholesterolemic rabbits (immunostaining); type: in vivo, rabbit; conditions: six weeks; for reduction in VCAM-1 expression in aorta sections: immunostaining, approx. 150 mg/kg/day (probucol: similar experiment, same dose)
Text: (§2) After six weeks, lipoprotein fractions were separated from whole plasma by […], and analyzed for cholesterol and triglyceride content.
(§3) The rabbits described in Example 8 were sacrificed and aortas obtained. The aortas were stained with sudan-4 and the extent of staining analyzed. FIG. 9 is a graph of the percent aortic surface area covered by lesions in MSE treated and untreated lipid-fed rabbits.
(§4) Sections of the aortas were immunostained for VCAM-1 expression or macrophage accumulation using antibodies for VCAM-1 or Ram-11 antigen.

[5] = test system: macrophage accumulation (Ram-11 antigen); assay: Macrophage accumulation in aorta sections of hypercholesterolemic rabbits (Ram-11 immunostaining); type: in vivo, rabbit; conditions: six weeks; for reduction in macrophage accumulation in aorta sections: immunostaining (Ram-11), approx. 150 mg/kg/day (probucol: similar experiment, same dose)
Text: as §2, §3, §4

[6] = test system: apoE-knock out mice; assay: Lipoproteins in apoE-knock out mice, two weeks oral; type: in vivo, mouse; conditions: for effect on total cholesterol and LDL / effect on HDL: mice
[7] = test system: rabbits; assay: Effect on lipoproteins in rabbits (summary statement); type: in vivo, rabbit; conditions: for effect on HDL: rabbits (species not restated for probucol)
Text: Statins reduce LDL and may or may not effect HDL.

[8] = test system: VCAM-1; assay: VCAM-1 expression (general statement)
[9] = test system: LDL receptor-deficient rabbits; conditions: Carew et al.; cited from earlier work
[10] = cited from earlier work
[11] = test system: MCP-1; assay: MCP-1 expression in human aortic endothelial cells (TNF, ELISA); type: cell-based
Text: The cell culture media was harvested and used to quantitate the amount of MCP-1 using a color-based ELISA assay. […] MCP-1 is a chemoattractant protein that recruits monocytes to an atherosclerotic lesion.

[12] = test system: VCAM-1; assay: VCAM-1 gene expression in lungs of LPS-challenged mice (Northern blot); type: in vivo, mouse; conditions: subcutaneous time release pellets, 150 mg/kg/day
Experimental: (§5) MSE administered via subcutaneous implanted pellets (150 mg/kg/day time release pellets) blocks LPS-induced gene expression of VCAM-1 and MCP-1 in lungs in a mice model.
(§6) FIG. 4 is a Northern blot analysis of VCAM-1 and MCP-1 gene expression from RNA isolated from the lungs of LPS-challenged ApoE knockout mice. […] After one week they were challenged intraperitoneally with 1 mg/kg of LPS. After two hours the animals were sacrificed and lungs frozen for RNA isolation. The RNA was size fractionated by denaturing 1.0% agarose gel electrophoresis, transferred to a nylon membrane and hybridized with a mouse JE-specific ^32 P-labelled cDNA probe. The membrane was subsequently stripped and hybridized with a mouse VCAM-1 specific cDNA and then a chicken β-actin specific cDNA probe.

[13] = test system: MCP-1; assay: MCP-1 gene expression in lungs of LPS-challenged mice (Northern blot); type: in vivo, mouse; conditions: subcutaneous time release pellets, 150 mg/kg/day
Experimental: as §5, §6

[14] = Drug level in plasma of rabbits fed a high cholesterol diet for three weeks (HPLC); type: in vivo, rabbit; conditions: 0.5% wt/wt in high-fat chow, FIG. 6
Text: The drugs were extracted from plasma with ether and analyzed by high pressure liquid chromatography.

[15] = test system: NF-kB; assay: NF-kB activation in TNF-treated human aortic endothelial cells (gel shift); type: cell-based; conditions: HAEC, 25 micromolar, 1, 2 or 4 h
Experimental: Human aortic endothelial cells were treated with TNF alone or in combination with 25 micromolar MSE or PDTC for a period of either one hour, two hours or four hours. The cells were washed and the nuclear extracts were prepared to perform gel shift analysis using a VCAM-1 promoter probe.

[16] = test system: New Zealand white rabbits; assay: Cholesterol and lipoproteins in cholesterol-fed New Zealand White rabbits, six weeks; type: in vivo, rabbit
Experimental: (§7) Oral administration of MSE (150 mg/kg/day) for six weeks lowers total plasma, ApO-B containing and HDL cholesterol levels in a New Zealand White rabbit model.
as §2

[17] = test system: aortic lesions; assay: Aortic lesions in hypercholesterolemic rabbits (sudan-4 staining); type: in vivo, rabbit; conditions: six weeks
Experimental: as §7, §2, §3

[18] = test system: hypercholesterolemic monkeys; assay: Serum LDL and cholesterol in hypercholesterolemic cynomolgus monkeys; type: in vivo; conditions: for effect on HDL: monkeys
Experimental: Cynomolgus monkeys were made hypercholesterolemic prior to AGE-3 dosing by feeding a high fat cholesterol diet. The monkeys were then dosed orally with AGE-3 (100 mg/kg/day) for two weeks. The percent serum LDL cholesterol decreased in a range from 4 to 60 percent in the monkeys over this time period. Administration of the drug was then terminated, and serum cholesterol checked on day 29.

[19] = Plasma level of MSE over days of treatment (FIG. 10); type: in vivo; conditions: FIG. 10, in micromolar
[20] = test system: bacteria; assay: Bacterial Ames test
Text: MSE is not a mutagen in the bacterial Ames test.

[21] = test system: rats; assay: Two-week oral administration to rats (toxicity, clinical chemistry); type: in vivo, rat; conditions: 1000 mg/kg/day
[22] = test system: C57 black mice; assay: Lipoproteins in cholesterol-fed C57 black mice, two weeks oral; type: in vivo, mouse
[23] = test system: NF-kB; conditions: diverse signals; cited from earlier work
[24] = test system: VCAM-1; conditions: PCT/US95/05880; cited from earlier work
[25] = test system: VCAM-1; conditions: U.S. Pat. No. 5,380,747; cited from earlier work
[26] = 0.5 wt/wt (approx. 150 mg/kg/day) in diet, FIG. 8
[27] = oral, 150 mg/kg/day, New Zealand White rabbit
[28] = listed as monosuccinic acid ester of probucol

Compound: CC(C)(Sc1cc(C(C)(C)C)c(O)c(C(C)(C)C)c1)Sc1cc(C(C)(C)C)c(O)c(C(C)(C)C)c1 [probucol, 4,4'-(isopropylidenedithio) bis(2,6-di-tert-butylphenol), reference compound]
- VCAM-1 expression as a percentage of VCAM-1 expression induced by TNF alone [1]: does not have an appreciable effect on VCAM
- ICAM-1 expression as a percentage of ICAM-1 expression induced by TNF alone [2]: no effect on ICAM expression
- reduction in lipoprotein fractions (cholesterol) [3]: only HDL cholesterol
- reduction in VCAM-1 expression in aorta sections [4]: less than 25%
- reduction in macrophage accumulation in aorta sections [5]: less than 25%
- effect on total cholesterol and LDL [6]: a minimal if any, effect
- effect on HDL [7]: reduces HDL significantly
- effect on LDL ([7]; species not restated for probucol): reduces LDL only to a small extent
- effect on VCAM-1 expression [8]: does not significantly affect VCAM-1 expression
- progression of atherosclerosis [9]: slow the progression of atherosclerosis
- solubility in water [10]: almost insoluble in water

Compound: CC(C)(Sc1cc(C(C)(C)C)c(O)c(C(C)(C)C)c1)Sc1cc(C(C)(C)C)c(OC(=O)CCC(=O)O)c(C(C)(C)C)c1 [MSE, monosuccinic acid ester of probucol]
- VCAM-1 expression as a percentage of VCAM-1 expression induced by TNF alone [1]: inhibits the expression of VCAM-1
- TNF-induced VCAM-1 gene expression ([1]; human aortic endothelial cells): selectively inhibits
- ICAM-1 expression as a percentage of ICAM-1 expression induced by TNF alone [2]: only a slight effect on ICAM expression which was not very concentration dependent
- MCP-1 expression ([11]; HAEC, MSE 10 μM, probucol 50 μM, TNF, 4 h, FIG. 3): inhibited the expression of MCP-1 to a greater extent than probucol itself
- TNF-induced MCP-1 gene expression ([11]; human aortic endothelial cells): selectively inhibits
- LPS-induced gene expression of VCAM-1 in lungs [12]: blocks
- LPS-induced gene expression of MCP-1 in lungs [13]: blocks
- reduction in lipoprotein fractions (cholesterol) [3]: statistically significant reduction in all lipoprotein fractions
- drug level in plasma, MSE vs probucol [14]: similar
- effect on NF-kB activation [15]: does not affect NF-kB activation
- cholesterol in IDL [16, 26]: lowered more by treatment with AGE-3 than with probucol
- cholesterol in VLDL [16, 26]: lowered more by treatment with AGE-3 than with probucol
- total cholesterol [16, 26]: lowered more by treatment with AGE-3 than with probucol
- ApO-B containing cholesterol levels [16, 27]: lowers
- HDL cholesterol levels [16, 27]: lowers
- total plasma cholesterol [16, 27]: lowers
- atherosclerosis lesion formation ([17]; oral, 150 mg/kg/day): marked inhibition
- aortic sudan-4 staining ([17]; approx. 150 mg/kg/day, FIG. 9): much less staining
- reduction in VCAM-1 expression in aorta sections [4]: more than 75%
- VCAM-1 expression in aorta ([4]; oral, 150 mg/kg/day): marked inhibition
- reduction in macrophage accumulation in aorta sections [5]: more than 75%
- macrophage accumulation ([5]; oral, 150 mg/kg/day): marked inhibition
- serum cholesterol after termination of dosing ([18]; day 29, after 100 mg/kg/day oral for two weeks): returned to the pretreatment level
- lowering of LDL, reversibility ([18]; during and after administration, FIG. 12): reversible lowering of LDL
- effect on HDL [18]: without effecting HDL
- effect on total cholesterol and LDL, monkeys vs mice ([18]; monkeys compared with mice): significantly more effective at reducing both cholesterol and LDL in rabbits and monkeys than in mice
- effect on HDL [18, 28]: does not affect HDL
- LDL cholesterol ([18]; oral, two weeks): lowers
- total plasma cholesterol ([18]; oral, two weeks): lowers
- plasma level of MSE as a function of days [19]: remained fairly constant
- effect on HDL [6]: without affecting HDL
- effect on total cholesterol and LDL [6]: a minimal if any, effect
- effect on HDL [6, 28]: does not affect HDL
- apoB-containing lipoproteins ([6]; oral, two weeks, apoE-knock out mice): selectively lowers
- mutagenicity [20]: not a mutagen
- mortality ([21]; oral, two weeks): did not result in any mortality
- changes in liver morphology or histopathology ([21]; rat, in vivo, po): not accompanied with changes in liver morphology or histopathology
- hematocrit values ([21]; rat, in vivo, po): no effect
- serum LDH elevation ([21]; rat, in vivo, po): not statistically different from the untreated group
- serum SGOT elevation ([21]; rat, in vivo, po): not statistically different from the untreated group
- serum SGPT elevation ([21]; rat, in vivo, po): not statistically different from the untreated group
- serum alkaline phosphatase elevation ([21]; rat, in vivo, po): not statistically different from the untreated group
- serum electrolyte values ([21]; rat, in vivo, po): no effect
- effect on HDL [7]: reduces HDL only to a small extent
- effect on total cholesterol and LDL, rabbits vs mice ([7]; rabbits compared with mice): significantly more effective at reducing both cholesterol and LDL in rabbits and monkeys than in mice
- apoB-containing lipoproteins [22]: selectively lowers
- effect on HDL [22]: without affecting HDL
- effect on VCAM-1 expression [8]: block the induced expression of the endothelial cell surface adhesion molecule VCAM-1
- VCAM-1 expression, all species tested ([8]; all species tested): inhibits the expression of VCAM-1 in all species tested

Compound: S=C(S)N1CCCC1 [PDTC, pyrrolidine dithiocarbamate]
- effect on NF-kB activation [15]: does inhibit the activation of NF-kB
- activation of NF-kB in vascular endothelial cells [23]: specifically inhibited
- induction of VCAM-1 by polyunsaturated fatty acids and their hydroperoxides [24]: supressed
- expression of VCAM-1 in vascular endothelial cells [25]: can be inhibited
